Patent US6432954B1, “Pharmaceutical compositions and methods for use” (Targacept, Inc., priority 2000, dated 2002)

Key:
Assay type in all cases: physicochemical
[1] = Water solubility of the salt
Excerpt: (§1) The salts of the present invention which are derived from aryl substituted amines and 2,3-diacyl-tartaric acids have a number of advantages over other salts derived from aryl substituted amines and other acids, such as fumaric acid or galactaric acid. […] As such, the di-p-toluoyl-D-tartrate salt of (2S)-(4E)-N-methyl-5-[3-(5-isopropoxypyridin)yl)]-4-penten-2-amine is a free-flowing crystalline powder; and such a property is a definite advantage for pharmaceutical formulation development and pharmaceutical manufacturing. If necessary, this salt can be milled to an acceptable particle size range for pharmaceutical processing. […] The salt is compatible with a wide range of excipients that might be chosen for the manufacture of solid oral dosage forms. This is especially so for those exicipients, such polysaccharide derivatives, that are pharmaceutically defined hydrates and those with only loosely bound surface water. As an illustration, salts derived from certain aryl substituted amines, such as E-metanicotine and fumaric acid are prone to the formation of impurities within the salt. For example, impurities arise from the Michael addition reaction of the secondary amine in E-metanicotine to the olefin in fumaric acid. These impurities lower the chemical purity of the salt and adversely affect the chemical integrity of the salt upon long-term storage. […]

[2] = Physical and chemical stability of the salt
Excerpt: as §1

[3] = Water absorption (hygroscopicity) of the salt
Excerpt: as §1

Row | Compound | water solubility [1] | stability [2] | amount of water absorbed ([3]; room temperature and 90% relative humidity) | amount of water absorbed ([3]; 40° C. and 70% relative humidity)
1 | CN[C@@H](C)C/C=C/c1cncc(OC(C)C)c1 [Sample No. 2, (2S)-(4E)-N-methyl-5-[3-(5-isopropoxypyridin)yl]-4-penten-2-amine hemi-(di-p-toluoyl-D-tartrate)] | water soluble | physically and chemically stable | 3.2% | –
2 | CN[C@@H](C)C/C=C/c1cncc(OC(C)C)c1.CN[C@@H](C)C/C=C/c1cncc(OC(C)C)c1.O=C(O)[C@@H](O)[C@H](O)[C@H](O)[C@@H](O)C(=O)O [hemigalactarate of (2S)-(4E)-N-methyl-5-[3-(5-isopropoxypyridin)yl)]-4-penten-2-amine, reference compound] | – | – | – | 11.8%
